# Measurements reported in paper PMC4311994, “Identification, Expression Profiling and Fluorescence-Based Binding Assays of a Chemosensory Protein Gene from the Western Flower Thrips, Frankliniella occidentalis” (PLoS ONE, 2015).
# Read-outs that look alike come from different tables or passages of the source.
# Columns and labels:
# [1] = biological target: recombinant FoccCSP protein (Frankliniella occidentalis, UniProt A0A0C5AYL1); experiment: biochemical; assay type: binding; details: for Kd: Dissociation constant (KD), calculated from IC50 with Ki = [IC50]/(1+[1-NPN]/K1-NPN)
# Protocol: (§1) Fluorescence binding assays were performed using a 970CRT spectrofluorophotometer (Lengguang, Shanghai, China) at 25°C with a 1 cm lightpath quartz cuvette and 10 nm slit width for excitation and emission. FoccCSP protein was diluted from a 2 μM stock solution with 50 mM Tris-HCl buffer (pH 7.4). The fluorescent probe N-phenyl-1-naphthylamine (1-NPN) was diluted from a 1 mM stock solution with methanol. The potential ligands were prepared in a similar manner as 1-NPN.
# To measure the affinity of the 1-NPN fluorescent ligand for FoccCSP, the 2 μM protein solution prepared above was titrated with 1 mM 1-NPN to a final concentration between 2 and 20 μM. The affinities of the other potential ligands were measured using 1-NPN as a fluorescent reporter in competitive binding assays using 2 μM solutions of 1-NPN and FoccCSP and the addition of ligands to concentrations of 2–300 μM.
# To determine the 1-NPN and FoccCSP binding constants, the intensity values corresponding to the maximum fluorescence emissions were plotted against the concentration of free ligand. The bound ligand was evaluated using the fluorescence intensity values assuming that the protein was 100% active and using a saturation stoichiometry of 1:1 protein:ligand. The curves were linearized using the Scatchard Plot program. The dissociation constants for the competitors were calculated from the corresponding IC50 values using the equation K i = [IC 50]/(1+[1-NPN]/K 1-NPN), where [1-NPN] is the free concentration of 1-NPN and K 1-NPN is the dissociation constant of the FoccCSP/1-NPN complex.
# [2] = biological target: T1, FoccCSP protein (Frankliniella occidentalis, UniProt A0A0C5AYL1); experiment: Binding of the fluorescent probe 1-NPN to FoccCSP (titration, Scatchard plot); details: 2 μM FoccCSP titrated with 1-NPN to 2–20 μM, read-out: FoccCSP/1-NPN complex dissociation constant
# T1 sequence (A0A0C5AYL1 20-128): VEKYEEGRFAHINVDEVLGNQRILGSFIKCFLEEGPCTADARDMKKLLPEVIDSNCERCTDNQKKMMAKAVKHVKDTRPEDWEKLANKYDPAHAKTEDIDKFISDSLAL
# Protocol: as §1
# The intrinsic fluorescence of tryptophan was measured using a 2 μM FoccCSP protein solution. The excitation wavelength was 285 nm, and the emission spectrum was recorded between 290 and 530 nm. Quenching of the intrinsic fluorescence was measured in the presence of 2, 4, 6, 8, 10, 12, 14, 16, 18, and 20 μM 1-NPN under the same conditions.
# To measure the affinity of the 1-NPN fluorescent ligand for FoccCSP, the 2 μM protein solution prepared above was titrated with 1 mM 1-NPN to a final concentration between 2 and 20 μM. […]
# To determine the 1-NPN and FoccCSP binding constants, the intensity values corresponding to the maximum fluorescence emissions were plotted against the concentration of free ligand. The bound ligand was evaluated using the fluorescence intensity values assuming that the protein was 100% active and using a saturation stoichiometry of 1:1 protein:ligand. […]
# [3] = competitive displacement of 1-NPN, 2 μM 1-NPN and 2 μM FoccCSP, ligands 2–300 μM, 50 mM Tris-HCl pH 7.4, 25°C, read-out: IC50
Molecule,"IC50 [1, 3] [µM]",IC50 [1] [µM],Kd ([1]; 2 μM 1-NPN and 2 μM FoccCSP) [µM],also measured
3- phenyl aldehyde,108,–,–,–
"c1ccc(Nc2cccc3ccccc23)cc1 [1-NPN, N-phenyl-1-naphthylamine]",–,–,–,Kd [2]: 11.8 µM
COc1ccc(C=O)cc1 [Anisic aldehyde],11.4,–,–,–
O=Cc1ccccc1 [Benzaldehyde],–,52.5,48.4,–
CC(=O)OCc1ccccc1 [Benzyl acetate],–,98.2,90.5,–
OCc1ccccc1 [Benzyl alcohol],–,119,109,–
CC(C)=CCC[C@@H](C)CC=O [Citronellal],76.1,–,–,–
CC(C)=CCCC(C)CCO (centres unmarked) [Citronellol],–,75.8,69.9,–
CCc1ccccc1 [Ethyl benzene],–,63.4,58.5,–
CCOC(=O)c1cccnc1 [Ethyl nicotinate],–,52,47.9,–
CC12CCC(CC1)C(C)(C)O2 [Eucalyptol],–,92.4,85.2,–
C=CCc1ccc(O)c(OC)c1 [Eugenol],–,96.4,88.9,–
CC(C)=CCC/C(C)=C/CO [Geraniol],–,15.3,14.1,–
CCCCCC [Hexane],–,94.2,86.9,–
C=CC(C)(O)CCC=C(C)C (centres unmarked) [Linalool],–,85.6,79,–
COC(=O)c1ccncc1 [Methyl isonicotinate],52,–,–,–
COC(=O)c1ccccc1O [Methyl salicylate],–,35.2,32.5,–
CCCCCCCCC=O [Pelargonic aldehyde],79,–,–,–
O=Cc1ccccc1O [Salicylaldehyde],–,–,–,"Displacement of 1-NPN from the FoccCSP/1-NPN complex, fluorescence intensity decreased to 50% of the initial value ([1]; ligands up to 300 μM): unable to displace the fluorescent 1-NPN probe"
Neroli,98.9,–,–,–
